This assay relates to MCF7. As to the kind of experiment: Growth inhibition of human MCF7 cells by MTT assay. Format: functional, cell-based.

SMILES strings stand for the structures.

For `COc1ccc2c3c([nH]c2c1)-c1ccccc1NC(=O)C3`, half-maximal inhibition (IC50) required 600 nM.
As to `O=C1Cc2c([nH]c3ccccc23)-c2ccccc2N1` [PAULLONE], the IC50 is 1200 nM.

Usually IC50 stands for the concentration that inhibits the measured activity by half. Read a high IC50 as lower potency.

These data come from ChEMBL document CHEMBL4270501, “Indole-fused azepines and analogues as anticancer lead molecules: Privileged findings and future directions” (Eur J Med Chem, 2017).
